Experimental data: ChEMBL document CHEMBL4354835, “Selective Blockade of Neuronal BK (α + β4) Channels Preventing Epileptic Seizure” (J Med Chem, 2020)
pKd: −log10 of the molar value. The source made the active and inactive calls. The rule behind the calls is not given here.

Assays:
[1] = target: KCNMA1/KCNMB4 (Homo sapiens, UniProt Q12791+Q86W47); test: Inhibition of human BK alpha/beta4 channel expressed in HEK293T cells assessed as K+ outward current fraction at 10 uM at -80 mV holding potential by whole cell patch clamp method relative to control; format: cell-based
[2] = target: T1, Calcium-activated potassium channel subunit beta-4 (Homo sapiens, UniProt Q86W47); test: Binding affinity to NT-495 fluorophore reagent labelled human BK beta4 (45 to 166 residues) incubated for 30 mins by microscale thermophoresis assay; details: for pKd: read-out: Kd
T1 sequence (Q86W47 whole entry): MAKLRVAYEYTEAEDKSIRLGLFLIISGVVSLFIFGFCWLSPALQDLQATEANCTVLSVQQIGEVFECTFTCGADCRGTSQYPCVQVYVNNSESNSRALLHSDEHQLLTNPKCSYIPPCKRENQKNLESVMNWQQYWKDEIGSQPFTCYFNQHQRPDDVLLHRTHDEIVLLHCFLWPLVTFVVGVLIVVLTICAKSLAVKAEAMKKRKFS

[3] = target: T2, KCNMA1/KCNMB4 (Rattus norvegicus) (UniProt Q62976+Q9ESK8); test: Inhibition of BK alpha/beta-4 in PTZ-stimulated rat hippocampal pyramidal neurons assessed as larger action potential width at 300 pA current injection at -80mV holding potential measured after 10 mins by whole cell current clamp assay; format: protein-complex assay
[4] = target: T2, KCNMA1/KCNMB4 (Rattus norvegicus); test: Inhibition of BK alpha/beta-4 in PTZ-stimulated rat hippocampal pyramidal neurons assessed as slower decay of after hyperpolarization at 300 pA at -80mV holding potential measured after 10 mins by whole cell current clamp assay; format: protein-complex assay
[5] = target: T2, KCNMA1/KCNMB4 (Rattus norvegicus); test: Inhibition of BK alpha/beta-4 in PTZ-stimulated rat hippocampal pyramidal neurons assessed as increase in AHP size at 300 pA at -80mV holding potential measured after 10 mins by whole cell current clamp assay; format: protein-complex assay
[6] = organism: Rattus norvegicus; test: Anticonvulsant activity against PTZ-induced epileptic seizure Sprague-Dawley rat model assessed as reduction in mortality rate compound infused into hippocampal region and 10 mins later injected with PTZ and measured for 2 hrs post PTZ-stimulation; format: functional, organism-based
[7] = organism: Rattus norvegicus; test: Anticonvulsant activity against PTZ-induced epileptic seizure Sprague-Dawley rat model assessed as latency time of seizures compound infused into hippocampal region and 10 mins later injected with PTZ and measured for 2 hrs post PTZ-stimulation (reference value: 108.5 +/- 8.63 sec); format: functional
[8] = organism: Rattus norvegicus; test: Anticonvulsant activity against PTZ-induced epileptic seizure Sprague-Dawley rat model assessed as duration of seizure compound infused into hippocampal region and 10 mins later injected with PTZ and measured for 2 hrs post PTZ-stimulation (reference value: 376 +/- 76.43 sec); format: functional
[9] = organism: Rattus norvegicus; test: Anticonvulsant activity against PTZ-induced epileptic seizures Sprague-Dawley rat model assessed as decrease in number of seizures at high stage (stage 4 and 5) compound infused into hippocampal region and 10 mins later injected with PTZ and measured for 2 hrs post-PTZ stimulation; format: functional, organism-based
[10] = organism: Rattus norvegicus; test: Inhibition of field potential response in PTZ-induced epileptic seizure Sprague-Dawley rat model compound infused into hippocampal region and 10 mins later injected with PTZ and measured after 2 hrs by microarray electrode based analysis; format: functional, organism-based
[11] = organism: Rattus norvegicus; test: Effect on neuronal network in PTZ-induced epileptic seizures Sprague-Dawley rat model assessed as lowered PSD at gamma wave band compound infused into hippocampal region and 10 mins later injected with PTZ and measured after 2 hrs by power spectral density analysis; format: functional, organism-based
[12] = organism: Rattus norvegicus; test: Effect on neuronal network in PTZ-induced epileptic seizures Sprague-Dawley rat model assessed as lowered PSD at theta wave band compound infused into hippocampal region and 10 mins later injected with PTZ and measured after 2 hrs by power spectral density analysis; format: functional, organism-based
[13] = organism: Rattus norvegicus; test: Effect on neuronal network in PTZ-induced epileptic seizures Sprague-Dawley rat model assessed as lowered PSD at alpha wave band compound infused into hippocampal region and 10 mins later injected with PTZ and measured after 2 hrs by power spectral density analysis; format: functional, organism-based
[14] = organism: Rattus norvegicus; test: Effect on neuronal network in PTZ-induced epileptic seizures Sprague-Dawley rat model assessed as lowered PSD at delta wave band compound infused into hippocampal region and 10 mins later injected with PTZ and measured after 2 hrs by power spectral density analysis; format: functional, organism-based
[15] = organism: Rattus norvegicus; test: Effect on neuronal network in PTZ-induced epileptic seizures Sprague-Dawley rat model assessed as lowered PSD at beta wave band compound infused into hippocampal region and 10 mins later injected with PTZ and measured after 2 hrs by power spectral density analysis; format: functional, organism-based
[16] = organism: Rattus norvegicus; test: Inhibition of C-Fos expression in PTZ-induced epileptic seizures Sprague-Dawley rat model assessed as inhibition of FLI-positive granular neurons in DG region of contralateral hippocampus at 10 uM compound infused into hippocampal region and 10 mins later injected with PTZ and measured after 2 hrs by immunohistochemistry; format: functional, organism-based
[17] = organism: Rattus norvegicus; test: Inhibition of C-Fos expression in PTZ-induced epileptic seizures Sprague-Dawley rat model assessed as inhibition of FLI-positive pyramidal neurons in CA3 region of ipsilateral hippocampus at 10 uM compound infused into hippocampal region and 10 mins later injected with PTZ and measured after 2 hrs by immunohistochemistry; format: functional, organism-based
[18] = organism: Rattus norvegicus; test: Inhibition of C-Fos expression in PTZ-induced epileptic seizures Sprague-Dawley rat model assessed as inhibition of FLI-positive pyramidal neurons in CA3 region of contralateral hippocampus at 10 uM compound infused into hippocampal region and 10 mins later injected with PTZ and measured after 2 hrs by immunohistochemistry; format: functional, organism-based
[19] = organism: Rattus norvegicus; test: Neuroprotective activity in PTZ-induced epileptic seizure Sprague-Dawley rat model assessed as inhibition of hippocampal destruction by measuring increase in Nissl stained pyramidal neurons in ipsilateral hippocampus CA3 region compound infused into hippocampal region and 10 mins later injected with PTZ and measured after 3 days by Nissl staining based microscopic analysis; format: functional, organism-based
[20] = organism: Rattus norvegicus; test: Neuroprotective activity in PTZ-induced epileptic seizure Sprague-Dawley rat model assessed as inhibition of hippocampal destruction by measuring increase in Nissl stained granular neurons in ipsilateral hippocampus DG region compound infused into hippocampal region and 10 mins later injected with PTZ and measured after 3 days by Nissl staining based microscopic analysis; format: functional, organism-based
[21] = organism: Rattus norvegicus; test: Neuroprotective activity in PTZ-induced epileptic seizure Sprague-Dawley rat model assessed as inhibition of hippocampal destruction by measuring increase in Nissl stained pyramidal neurons in contralateral hippocampus CA1 region compound infused into hippocampal region and 10 mins later injected with PTZ and measured after 3 days by Nissl staining based microscopic analysis; format: functional, organism-based
[22] = organism: Rattus norvegicus; test: Effect on neuronal network in PTZ-induced epileptic seizures Sprague-Dawley rat model assessed as reduced total PSD frequency waves compound infused into hippocampal region and 10 mins later injected with PTZ and measured after 2 hrs by power spectral density analysis; format: functional, organism-based
[23] = organism: Rattus norvegicus; test: Inhibition of C-Fos expression in PTZ-induced epileptic seizures Sprague-Dawley rat model assessed as inhibition of FLI-positive granular neurons in DG region of ipsilateral hippocampus at 10 uM compound infused into hippocampal region and 10 mins later injected with PTZ and measured after 2 hrs by immunohistochemistry; format: functional, organism-based

## CC[C@H](C)[C@H](NC(=O)[C@H](CC(C)C)NC(=O)CNC(=O)[C@H](Cc1ccccc1)NC(=O)[C@H](CO)NC(=O)CN)C(=O)N[C@@H](CC(=O)O)C(=O)N[C@H](C(=O)N[C@@H](CCCCN)C(=O)N[C@H]1CSSC[C@@H]2NC(=O)[C@H](CCC(=O)O)NC(=O)CNC(=O)[C@H](CCC(N)=O)NC(=O)CNC(=O)[C@H](CO)NC(=O)CNC(=O)[C@H]([C@@H](C)O)NC(=O)[C@H](C(C)C)NC(=O)[C@H](CCCCN)NC(=O)[C@H](CCCCN)NC(=O)[C@@H]3CSSC[C@@H](C(=O)N[C@@H](Cc4ccc(O)cc4)C(=O)O)N[C@@H](CC(=O)O)C(=O)[C@H](CSSC[C@H](NC(=O)[C@H](CCC(=O)O)NC(=O)[C@H](CO)NC(=O)[C@H](CO)NC(=O)[C@H](C)NC(=O)[C@H](Cc4ccccc4)NC1=O)C(=O)N[C@@H](Cc1c[nH]c4ccccc14)C(=O)N[C@@H]([C@@H](C)O)C(=O)N[C@@H](C)C(=O)N3)N[C@@H](CCC(N)=O)C(=O)NC(=O)[C@H](CC(N)=O)NC(=O)[C@H](CC(N)=O)NC(=O)[C@H](CCC(N)=O)NC2=O)C(C)C
[1]
  Ratio: 0.8
[2]
  Kd: Not Active

## CC[C@H](C)[C@H](NC(=O)[C@H](CC(C)C)NC(=O)CNC(=O)[C@H](Cc1ccccc1)NC(=O)[C@H](CO)NC(=O)CN)C(=O)N[C@@H](CC(=O)O)C(=O)N[C@H](C(=O)N[C@@H](CCCCN)C(=O)N[C@H]1CSSC[C@@H]2NC(=O)[C@H](CCCCN)NC(=O)CNC(=O)[C@H](C)NC(=O)CNC(=O)[C@H](CO)NC(=O)CNC(=O)[C@H]([C@@H](C)O)NC(=O)[C@H](C(C)C)NC(=O)[C@H](CCCCN)NC(=O)[C@H](CCCCN)NC(=O)[C@@H]3CSSC[C@@H](C(=O)N[C@@H](Cc4ccc(O)cc4)C(=O)O)N[C@@H](CCCNC(=N)N)C(=O)[C@H](CSSC[C@H](NC(=O)[C@H](CCC(=O)O)NC(=O)[C@H](CO)NC(=O)[C@H](CO)NC(=O)[C@H](C)NC(=O)[C@H](Cc4ccccc4)NC1=O)C(=O)N[C@@H](Cc1c[nH]c4ccccc14)C(=O)N[C@@H]([C@@H](C)O)C(=O)N[C@@H](C)C(=O)N3)N[C@@H](CCC(N)=O)C(=O)NC(=O)[C@H](CC(N)=O)NC(=O)[C@H](CC(N)=O)NC(=O)[C@H](CCC(N)=O)NC2=O)C(C)C
[1]
  Ratio: 0.74
[2]
  pKd: 3.19
[3]
  inhibition: Active
[4]
  inhibition: inactive
[5]
  inhibition: inactive
[6]
  Activity: inactive
[7]
  Time: 219.5 to 266.5 s
[8]
  Time: 316.66 to 353.33 s
[9]
  Activity: inactive
[10]
  inhibition: inactive
[11]
  Activity: inactive
[12]
  Activity: inactive
[13]
  Activity: inactive
[14]
  Activity: inactive
[15]
  Activity: inactive
[16]
  inhibition: inactive
[17]
  inhibition: inactive
[18]
  inhibition: inactive
[19]
  Activity: Active
[20]
  Activity: Active
[21]
  Activity: inactive
[22]
  inhibition: inactive
[23]
  inhibition: inactive

## CC[C@H](C)[C@H](NC(=O)[C@H](CC(C)C)NC(=O)CNC(=O)[C@H](Cc1ccccc1)NC(=O)[C@H](CO)NC(=O)CN)C(=O)N[C@@H](CC(=O)O)C(=O)N[C@H](C(=O)N[C@@H](CCCCN)C(=O)N[C@H]1CSSC[C@@H]2NC(=O)[C@H](CCCCN)NC(=O)CNC(=O)[C@H](CCC(N)=O)NC(=O)CNC(=O)[C@H](CO)NC(=O)CNC(=O)[C@H]([C@@H](C)O)NC(=O)[C@H](C(C)C)NC(=O)[C@H](CCCCN)NC(=O)[C@H](CCCCN)NC(=O)[C@@H]3CSSC[C@@H](C(=O)N[C@@H](Cc4ccc(O)cc4)C(=O)O)N[C@@H](CCCNC(=N)N)C(=O)[C@H](CSSC[C@H](NC(=O)[C@H](CCC(=O)O)NC(=O)[C@H](CO)NC(=O)[C@H](CO)NC(=O)[C@H](C)NC(=O)[C@H](Cc4ccccc4)NC1=O)C(=O)N[C@@H](Cc1c[nH]c4ccccc14)C(=O)N[C@@H](C(C)C)C(=O)N[C@@H](C)C(=O)N3)N[C@@H](CCC(N)=O)C(=O)NC(=O)[C@H](CC(N)=O)NC(=O)[C@H](CC(N)=O)NC(=O)[C@H](CCC(N)=O)NC2=O)C(C)C
[1]
  Ratio: 0.36
[2]
  pKd: 3.26

## CC[C@H](C)[C@H](NC(=O)[C@H](CC(C)C)NC(=O)CNC(=O)[C@H](Cc1ccccc1)NC(=O)[C@H](CO)NC(=O)CN)C(=O)N[C@@H](CC(=O)O)C(=O)N[C@H](C(=O)N[C@@H](CCCCN)C(=O)N[C@H]1CSSC[C@@H]2NC(=O)[C@H](CCCCN)NC(=O)CNC(=O)[C@H](CCC(N)=O)NC(=O)CNC(=O)[C@H](C)NC(=O)CNC(=O)[C@H]([C@@H](C)O)NC(=O)[C@H](C(C)C)NC(=O)[C@H](CCCCN)NC(=O)[C@H](CCCCN)NC(=O)[C@@H]3CSSC[C@@H](C(=O)N[C@@H](Cc4ccc(O)cc4)C(=O)O)N[C@@H](CCCNC(=N)N)C(=O)[C@H](CSSC[C@H](NC(=O)[C@H](CCC(=O)O)NC(=O)[C@H](CO)NC(=O)[C@H](CO)NC(=O)[C@H](C)NC(=O)[C@H](Cc4ccccc4)NC1=O)C(=O)N[C@@H](Cc1c[nH]c4ccccc14)C(=O)N[C@@H]([C@@H](C)O)C(=O)N[C@@H](C)C(=O)N3)N[C@@H](CCC(N)=O)C(=O)NC(=O)[C@H](CC(N)=O)NC(=O)[C@H](CC(N)=O)NC(=O)[C@H](CCC(N)=O)NC2=O)C(C)C
[1]
  Ratio: 0.75
[2]
  pKd: 0.96

## CC[C@H](C)[C@H](NC(=O)[C@H](CC(C)C)NC(=O)CNC(=O)[C@H](Cc1ccccc1)NC(=O)[C@H](CO)NC(=O)CN)C(=O)N[C@@H](CCCCN)C(=O)N[C@H](C(=O)N[C@@H](CCCCN)C(=O)N[C@H]1CSSC[C@@H]2NC(=O)[C@H](CCCCN)NC(=O)CNC(=O)[C@H](CCC(N)=O)NC(=O)CNC(=O)[C@H](CO)NC(=O)CNC(=O)[C@H]([C@@H](C)O)NC(=O)[C@H](C(C)C)NC(=O)[C@H](CCCCN)NC(=O)[C@H](CCCCN)NC(=O)[C@@H]3CSSC[C@@H](C(=O)N[C@@H](Cc4ccc(O)cc4)C(=O)O)N[C@@H](CCCNC(=N)N)C(=O)[C@H](CSSC[C@H](NC(=O)[C@H](CCCCN)NC(=O)[C@H](CO)NC(=O)[C@H](CO)NC(=O)[C@H](C)NC(=O)[C@H](Cc4ccccc4)NC1=O)C(=O)N[C@@H](Cc1c[nH]c4ccccc14)C(=O)N[C@@H]([C@@H](C)O)C(=O)N[C@@H](C)C(=O)N3)N[C@@H](CCC(N)=O)C(=O)NC(=O)[C@H](CC(N)=O)NC(=O)[C@H](CC(N)=O)NC(=O)[C@H](CCC(N)=O)NC2=O)C(C)C
[1]
  Ratio: 0.56
[2]
  pKd: 2.96
